Where two headings read alike, the source gives them in different places. A value given as a limit tells only on which side of the number the result lay.

What is called EC50 is the concentration at which the effect is half-maximal.

The experiment concerns HCV replicon cells. Kind of experiment: Cell-based HCV replicon assay (replicon RNA by Taqman real time PCR). The following applies: read-out: 1b EC50. Background: A replicon is a self-replicating genome or part of one, used to study replication in cells.
The mark [1] stands for this setting: Hepatitis C virus, 72 h, HCV replicon 1b, cells harvested on day 3.
Setting [2] is: HCV replicon 1b, cells harvested on day 3.

Consider `CCOc1nc(N)nc2c1ncn2[C@@H]1O[C@H](COP(=O)(N[C@@H](C)C(=O)OCC(C)C)Oc2ccccc2)[C@@H](O)[C@@]1(C)N=[N+]=[N-]` (some centres unmarked) [Compound 60], for which the EC50 stood at 2000 nM.

In the case of `CCOc1nc(N)nc2c1ncn2[C@@H]1O[C@H](COP(=O)(N[C@@H](C)C(=O)OCC(C)C)Oc2ccccc2)[C@@H](O)[C@@]1(C)N=[N+]=[N-]` (some centres unmarked) [Compound 61], the EC50 is 800 nM.

As for `CCOc1nc(N)nc2c1ncn2[C@@H]1O[C@H](COP(=O)(N[C@@H](C)C(=O)OCC(C)C)Oc2ccccc2)[C@@H](O)[C@@]1(C)N=[N+]=[N-]` (some centres unmarked) [Compound 62], the EC50 stood at 800 nM. Take `CCOc1nc(N)nc2c1ncn2[C@@H]1O[C@H](COP(=O)(N[C@@H](C)C(=O)OC)Oc2ccc(Cl)cc2)[C@@H](O)[C@@]1(C)N=[N+]=[N-]` (some centres unmarked) [Compound 63]: the EC50 (Hepatitis C virus, 72 h) came out at 400 nM. The same measure, in the same setting: under `CCOc1nc(N)nc2c1ncn2[C@@H]1O[C@H](COP(=O)(N[C@@H](C)C(=O)OC2CCCCC2)Oc2ccc(F)cc2)[C@@H](O)[C@@]1(C)N=[N+]=[N-]` (some centres unmarked) [Compound 64] stands 400 nM. Take `C[C@@]1(N=[N+]=[N-])[C@@H]2OP(=O)(Oc3ccccc3)OC[C@H]2O[C@H]1n1ccc(N)nc1=O` (some centres unmarked) [Compound 65]: where the note is “Hepatitis C virus, 72 h”, the concentration giving a half-maximal response (EC50) was determined as 56000 nM. Same read-out and setting: under `CCOc1nc(N)nc2c1ncn2[C@@H]1O[C@H](COP(=O)(N[C@@H](C)C(=O)OCc2ccccc2)Oc2ccccc2)[C@@H](O)[C@@]1(C)N=[N+]=[N-]` (some centres unmarked) [Compound 69] stands 2200 nM; under `CCOc1nc(N)nc2c1ncn2[C@@H]1O[C@H](COP(=O)(N[C@@H](C)C(=O)OC)Oc2cccc3ccccc23)[C@@H](O)[C@@]1(C)N=[N+]=[N-]` (some centres unmarked) [Compound 70], 400 nM. Consider `CCOC(=O)[C@H](C)NP(=O)(OC[C@H]1O[C@@H](n2cnc3c(OCC)nc(N)nc32)[C@](C)(N=[N+]=[N-])[C@@H]1O)Oc1ccc(Cl)cc1` (some centres unmarked) [Compound 71], for which the EC50 (Hepatitis C virus, 72 h) worked out at 600 nM.

For `CCOc1nc(N)nc2c1ncn2[C@@H]1O[C@H](COP(=O)(N[C@@H](C)C(=O)OC(C)C)Oc2ccc3c(c2)OCO3)[C@@H](O)[C@@]1(C)N=[N+]=[N-]` (some centres unmarked) [Compound 72], for the setting “Hepatitis C virus, 72 h”, the concentration giving a half-maximal response (EC50) worked out at 800 nM.

On to `CCOc1nc(N)nc2c1ncn2[C@@H]1O[C@@H]2COP(=O)(OC3CCCC3)O[C@H]2[C@@]1(C)N=[N+]=[N-]` (some centres unmarked) [Compound 73], for which the EC50 under setting [1] is 700 nM. In the case of `COC(=O)[C@H](C)NP(=O)(OC[C@H]1O[C@@H](n2cnc3c(OC)nc(N)nc32)[C@](C)(N=[N+]=[N-])[C@@H]1O)Oc1ccccc1Cl` (some centres unmarked) [Compound 77], the half-maximal effective concentration (EC50) (Hepatitis C virus, 72 h) is 600 nM. `CCCOC(=O)[C@H](C)NP(=O)(OC[C@H]1O[C@@H](n2cnc3c(OC)nc(N)nc32)[C@](C)(N=[N+]=[N-])[C@@H]1O)Oc1ccccc1` (some centres unmarked) [Compound 78]: the EC50 (Hepatitis C virus, 72 h) worked out at 1100 nM. Same read-out and setting: the value for `COC(=O)[C@H](C)NP(=O)(OC[C@H]1O[C@@H](n2cnc3c(OC)nc(N)nc32)[C@](C)(N=[N+]=[N-])[C@@H]1O)Oc1ccc(Cl)cc1` (some centres unmarked) [Compound 79] was 200 nM; that for `COc1nc(N)nc2c1ncn2[C@@H]1O[C@H](COP(=O)(N[C@@H](C)C(=O)OC2CCCCC2)Oc2ccc(Cl)cc2)[C@@H](O)[C@@]1(C)N=[N+]=[N-]` (some centres unmarked) [Compound 80] was 2600 nM. In the case of `C[C@@]1(N=[N+]=[N-])[C@@H]2OP(=O)(OC3CCC3)OC[C@H]2O[C@H]1n1ccc(=O)[nH]c1=O` (some centres unmarked) [Compound 83], the half-maximal effective concentration (EC50) under setting [1] was 63000 nM.

`C[C@@]1(N=[N+]=[N-])[C@@H]2OP(=O)(OC3CCC3)OC[C@H]2O[C@H]1n1ccc(=O)[nH]c1=O` (some centres unmarked) [Compound 84]: the half-maximal effective concentration (EC50) under setting [2] was 51000 nM. On to `CCCOP1(=O)OC[C@H]2O[C@@H](n3ccc(=O)[nH]c3=O)[C@](C)(N=[N+]=[N-])[C@@H]2O1` (some centres unmarked) [Compound 85], for which the EC50 under setting [1] is above 100000 nM.

For `CCCOP1(=O)OC[C@H]2O[C@@H](n3ccc(=O)[nH]c3=O)[C@](C)(N=[N+]=[N-])[C@@H]2O1` (some centres unmarked) [Compound 86], the concentration for a half-maximal effect (EC50) under setting [2] is above 100000 nM. In the case of `C[C@@]1(N=[N+]=[N-])[C@@H]2OP(=O)(OC3CCCC3)OC[C@H]2O[C@H]1n1ccc(=O)[nH]c1=O` (some centres unmarked) [Compound 87], under setting [2], the EC50 was determined as 3100 nM. On to `C[C@@]1(N=[N+]=[N-])[C@@H]2OP(=O)(OC3CCCC3)OC[C@H]2O[C@H]1n1ccc(=O)[nH]c1=O` (some centres unmarked) [Compound 88], for which the EC50 under setting [2] stood at 400 nM. As for `C[C@H](NP(=O)(OC[C@H]1O[C@@H](n2ccc(=O)[nH]c2=O)[C@](C)(N=[N+]=[N-])[C@@H]1O)Oc1ccc(F)cc1)C(=O)OC1CCCCC1` (some centres unmarked) [Compound 89], the half-maximal effective concentration (EC50) was above 100000 nM. On to `C[C@H](NP(=O)(OC[C@H]1O[C@@H](n2ccc(=O)[nH]c2=O)[C@](C)(N=[N+]=[N-])[C@@H]1O)Oc1ccc(F)cc1)C(=O)OC1CCCCC1` (some centres unmarked) [Compound 90], for which the half-maximal effective concentration (EC50) turned out to be 2100 nM.

Regarding `CC(C)OC(=O)[C@H](C)NP(=O)(OC[C@H]1O[C@@H](n2ccc(=O)[nH]c2=O)[C@](C)(N=[N+]=[N-])[C@@H]1O)Oc1ccc(Cl)c(Cl)c1` (some centres unmarked) [Compound 92], where the note is “Hepatitis C virus, 72 h”, the EC50 worked out at 7600 nM. Take `COC(=O)[C@H](C)NP(=O)(OC[C@H]1O[C@@H](n2ccc(N)nc2=O)[C@](C)(N=[N+]=[N-])[C@@H]1O)Oc1ccccc1Cl` (some centres unmarked) [Compound 93]: the EC50 (Hepatitis C virus, 72 h) was 12000 nM. As for `COC(=O)[C@H](C)NP(=O)(OC[C@H]1O[C@@H](n2ccc(N)nc2=O)[C@](C)(N=[N+]=[N-])[C@@H]1O)Oc1ccccc1Cl` (some centres unmarked) [Compound 94], the EC50 was 10000 nM. Still for that read-out and setting: under `CC(C)OC(=O)[C@H](C)NP(=O)(OC[C@H]1O[C@@H](n2ccc(N)nc2=O)[C@](C)(N=[N+]=[N-])[C@@H]1O)Oc1ccccc1Cl` (some centres unmarked) [Compound 95] stands 4500 nM; under `CC(C)OC(=O)[C@H](C)NP(=O)(OC[C@H]1O[C@@H](n2ccc(N)nc2=O)[C@](C)(N=[N+]=[N-])[C@@H]1O)Oc1ccccc1Cl` (some centres unmarked) [Compound 96], 600 nM. Turning to `C[C@H](NP(=O)(OC[C@H]1O[C@@H](n2ccc(N)nc2=O)[C@](C)(N=[N+]=[N-])[C@@H]1O)Oc1ccccc1)C(=O)OC1CCCC1` (some centres unmarked) [Compound 97], for the setting “Hepatitis C virus, 72 h”, the EC50 came to 15000 nM. As to `COc1nc(N)nc2c1ncn2[C@@H]1O[C@@H]2COP(=O)(OC3CCCC3)O[C@H]2[C@@]1(C)N=[N+]=[N-]` (some centres unmarked) [Compound 105], the EC50 under setting [1] is 17100 nM. As to `CCOc1nc(N)nc2c1ncn2[C@@H]1O[C@@H]2COP(=O)(OC3CCCCC3)O[C@H]2[C@@]1(C)N=[N+]=[N-]` (some centres unmarked) [Compound 106], the EC50 under setting [1] was determined as 49900 nM.

For `C[C@@]1(N=[N+]=[N-])[C@H](O)[C@@H](CO)O[C@H]1n1cnc2c(N3CCC3)nc(N)nc21` [Compound 137], the 50% effective concentration (EC50) under setting [1] was above 100000 nM. In the case of `C[C@@]1(N=[N+]=[N-])[C@H](O)[C@@H](CO)O[C@H]1n1cnc2c(NC3CC3)nc(N)nc21` [Compound 138], under setting [1], the EC50 was above 100000 nM.

On to `CCOC(=O)[C@H](C)NP(=O)(OC[C@H]1O[C@@H](n2ccc(=O)[nH]c2=O)[C@](C)(N=[N+]=[N-])[C@@H]1O)Oc1ccc(F)cc1` (some centres unmarked) [Compound 140], for which the EC50 (Hepatitis C virus, 72 h) came to 1400 nM. On the same count and under the same terms, under `CCOC(=O)[C@H](C)NP(=O)(OC[C@H]1O[C@@H](n2cnc3c(OCC)nc(N)nc32)[C@](C)(N=[N+]=[N-])[C@@H]1O)Oc1ccc(F)cc1` (some centres unmarked) [Compound 141] stands 200 nM; under `C[C@H](NP(=O)(OC[C@H]1O[C@@H](n2ccc(=O)[nH]c2=O)[C@](C)(N=[N+]=[N-])[C@@H]1O)Oc1ccccc1)C(=O)OC1CCCCC1` (some centres unmarked) [Compound 144], 700 nM; under `CCOc1nc(N)nc2c1ncn2[C@@H]1O[C@H](COP(=O)(N[C@@H](C)C(=O)OC2CCCCC2)Oc2ccccc2)[C@@H](O)[C@@]1(C)N=[N+]=[N-]` (some centres unmarked) [Compound 145], 200 nM. With `Cc1ccc(C(C)C)cc1OP(=O)(N[C@@H](C)C(=O)OC(C)C)OC[C@H]1O[C@@H](n2ccc(=O)[nH]c2=O)[C@](C)(N=[N+]=[N-])[C@@H]1O` (some centres unmarked) [Compound 177], the EC50 (Hepatitis C virus, 72 h) is 12000 nM. With `CC(=O)CCc1ccc(OP(=O)(N[C@@H](C)C(=O)OC(C)C)OC[C@H]2O[C@@H](n3ccc(=O)[nH]c3=O)[C@](C)(N=[N+]=[N-])[C@@H]2O)cc1` (some centres unmarked) [Compound 178], for the setting “Hepatitis C virus, 72 h”, the concentration giving a half-maximal response (EC50) turned out to be 3000 nM. Still for that read-out and setting: under `CCOC(=O)[C@H](C)NP(=O)(OC[C@H]1O[C@@H](n2ccc(N)nc2=O)[C@](C)(N=[N+]=[N-])[C@@H]1O)Oc1ccccc1Cl` (some centres unmarked) [Compound 183] stands 3000 nM. With `CCOC(=O)[C@H](C)NP(=O)(OC[C@H]1O[C@@H](n2ccc(N)nc2=O)[C@](C)(N=[N+]=[N-])[C@@H]1O)Oc1ccccc1Cl` (some centres unmarked) [Compound 184], the concentration for a half-maximal effect (EC50) is 5700 nM.

On to `CC(C)OC(=O)[C@H](C)NP(=O)(OC[C@H]1O[C@@H](n2ccc(N)nc2=O)[C@](C)(N=[N+]=[N-])[C@@H]1O)Oc1ccc(Cl)c(Cl)c1` (some centres unmarked) [Compound 195], for which the concentration giving a half-maximal response (EC50) (Hepatitis C virus, 72 h) worked out at 20 nM. Still for that read-out and setting: the value for `CC(C)OC(=O)[C@H](C)NP(=O)(OC[C@H]1O[C@@H](n2ccc(N)nc2=O)[C@](C)(N=[N+]=[N-])[C@@H]1O)Oc1ccc(F)cc1` (some centres unmarked) [Compound 196] was 39000 nM. For the compound `C[C@H](NP(=O)(OC[C@H]1O[C@@H](n2ccc(N)nc2=O)[C@](C)(N=[N+]=[N-])[C@@H]1O)Oc1ccc(F)cc1)C(=O)OC1CCCCC1` (some centres unmarked) [Compound 197], under “Hepatitis C virus, 72 h”, the EC50 turned out to be 400 nM. On the same count and under the same terms, the value for `CCOC(=O)[C@H](C)NP(=O)(OC[C@H]1O[C@@H](n2ccc(N)nc2=O)[C@](C)(N=[N+]=[N-])[C@@H]1O)Oc1ccc(Cl)cc1` (some centres unmarked) [Compound 198] was 600 nM. In the case of `C[C@H](NP(=O)(OC[C@H]1O[C@@H](n2ccc(N)nc2=O)[C@](C)(N=[N+]=[N-])[C@@H]1O)Oc1ccccc1)C(=O)OC1CCCC1` (some centres unmarked) [Compound 205], the 50% effective concentration (EC50) was 15000 nM. For `COC(=O)c1ccccc1OP(=O)(N[C@@H](C)C(=O)OC(C)C)OC[C@H]1O[C@@H](n2ccc(=O)[nH]c2=O)[C@](C)(N=[N+]=[N-])[C@@H]1O` (some centres unmarked) [Compound 219], for the setting “Hepatitis C virus, 72 h”, the concentration giving a half-maximal response (EC50) is 22000 nM.

Consider `CCOC(=O)c1cccc(OP(=O)(N[C@@H](C)C(=O)OC)OC[C@H]2O[C@@H](n3cnc4c(OC)nc(N)nc43)[C@](C)(N=[N+]=[N-])[C@@H]2O)c1` (some centres unmarked) [Compound 221], for which the EC50 (Hepatitis C virus, 72 h) stood at 800 nM. The same measure, in the same setting: under `CCOC(=O)c1cccc(OP(=O)(N[C@@H](C)C(=O)OC)OC[C@H]2O[C@@H](n3ccc(=O)[nH]c3=O)[C@](C)(N=[N+]=[N-])[C@@H]2O)c1` (some centres unmarked) [Compound 222] stands 10 nM; under `COC(=O)c1ccccc1OP(=O)(N[C@@H](C)C(=O)OC)OC[C@H]1O[C@@H](n2cnc3c(OC)nc(N)nc32)[C@](C)(N=[N+]=[N-])[C@@H]1O` (some centres unmarked) [Compound 223], 8800 nM.

The record behind these values is US9156872B2, “2′-azido substituted nucleoside derivatives and methods of use thereof for the treatment of viral diseases” (priority 2011, dated 2015).
